Results from publication PMC12249509, “Quinazoline Derivative kzl052 Suppresses Prostate Cancer by Targeting WRN Helicase to Stabilize DNA Replication Forks” (International Journal of Molecular Sciences, 2025).

What was measured:
[1] = tested on: normal human liver cells LX2; assay: MTT normal cytotoxicity, LX2; assay type: cell-based; settings: mean ± SD, n = 3
Experimental: (§1) Cell suspensions were prepared in a logarithmic growth phase and seeded in 96-well plates at a density of 5000–8000 cells/well for 12 h and treated with different concentrations of kzl052 for 48 h. A 5 mg/mL MTT dye solution (Solarbio, Beijing, China) was added to all cells at 37 °C for 4 h. Then DMSO was added after removing the supernatant, and the crystals were completely dissolved by shaking at 37 °C for 15 min. The absorbance was measured at 490 nm by a microplate reader (Gene, HongKong, China). The cell proliferation inhibition rate was calculated according to the following formula: (1-experimental group OD/control group OD) × 100% with DMSO as a negative control and the WRN inhibitor (NSC 617145, GLPBIO, Montclair, CA, USA) as a positive control.

[2] = tested on: normal human renal epithelial cells HK2; assay: MTT normal cytotoxicity, HK2; assay type: cell-based; settings: Epithelial cell, mean ± SD, n = 3
Experimental: as §1

[3] = tested on: PC3 cells; assay: γ-H2A.X immunofluorescence (DNA damage), PC3; assay type: cell-based, human; settings: 100 nM, 24 h
Experimental: (§2) Cell slides were prepared and treated with 100nM kzl052 for 24 h. A 4% PFA was added for fixation after PBS washing, and then the cells were treated with Triton X-100 (Sigma-Aldrich, Saint Louis, MO, USA) for 30 min. The cells were blocked with 4% BSA for 2 h and incubated overnight at 4 °C with a γ-H2A.X primary antibody (1:1000, CST, Boston, MA, USA). A fluorescent secondary antibody (1:50; CST) was added and incubated in the dark for 2 h. After washing with PBS, a 10 μg/mL DAPI staining solution was added and treated the cells for 5–10 min. The expression and localization of γ-H2A.X was detected by inverted fluorescence microscopy (Leica, Wetzlar, Germany).

[4] = tested on: PC3 cells; assay: MTT assay, PC3 cell growth; assay type: cell-based; settings: Homo sapiens, PC-3, 24 h (Figure 1 legend), 48 h (method)
Experimental: as §1

[5] = tested on: PARP1, Bax, PLK1, RB1, Bcl-2, SRC, PTEN, PCNA, RPA, FEN1, Mre11; assay: Western blot of apoptosis, RB signal and replication fork proteins; assay type: cell-based
Experimental: The cells treated by kzl052 were collected, washed by precooled PBS, and removed by centrifugation at 1000 g/5 min. A RIPA lysate (Solarbio, Beijing, China) was added for 30 min on ice. The protein concentration was determined by a BCA kit (Solarbio, Beijing, China) and denatured at 105 °C. The target proteins were isolated by SDS-PAGE gel electrophoresis and transferred to the PVDF membrane (Millipore, Bedford, MA, USA). A 5% BSA was added to block for 2 h. Primary antibodies (PNCA, RPA, FEN1, Mre11, PARP1, Bax, Bcl-2, PLK1, RB1, SRC, and PTEN; 1:1000 dilution, HUBIO, Hangzhou, China) were added and incubated at 4 °C overnight. The next day, the PVDF membrane with target proteins were washed by TBST and incubated with an HRP-labeled IgG secondary antibody (1:100,000 dilution, HUBIO, Hangzhou, China) for 2 h. After TBST washed, the target proteins were isolated and analyzed by a chemiluminescence instrument (BioRad, Hercules, CA, USA).

[6] = tested on: WRN-silenced PC3 cells; assay: MTT assay in WRN-silenced PC3 cells; assay type: cell-based, human; settings: shWRN lentiviral transfection
Experimental: Human prostate cancer cell lines PC3 and LNCaP cells were stored in the Biology Laboratory of the Natural Products Research Center of Guizhou Province (Guiyang, China). Cells were cultured in DMEM supplemented with 10% fetal bovine serum (BI, Nahariya, Israel) and 1% penicillin and streptomycin (Solarbio, Beijing, China) and incubated at 37 °C under 5% CO2, 95% air, and 95% humidity. The pLV-shWRN-GFP-Puro and blank control plasmids were constructed by Chongqing UNIBIO Biotechnology Co., Ltd. (Chongqing, China). The transfection steps were based on previous published studies. The inhibitory effect of the WRN protein in PC3 cells was detected by a Western blot assay.
as §1, with “The cell proliferation inhibition rate was calculated according to the following formula: (1-experimental group OD/control group OD) × 100% with DMSO as a negative control and the WRN inhibitor (NSC 617145, GLPBIO, Montclair, CA, USA) as a positive control.” left out

[7] = molecular target: T1, WRN protein (Homo sapiens, UniProt Q14191); assay: Cellular thermal shift assay (CETSA); assay type: binding; settings: PC3 cells, 100 nM, 2 h
T1 construct: endogenous in cells; host or cells: PC3
T1 sequence (Q14191 whole entry): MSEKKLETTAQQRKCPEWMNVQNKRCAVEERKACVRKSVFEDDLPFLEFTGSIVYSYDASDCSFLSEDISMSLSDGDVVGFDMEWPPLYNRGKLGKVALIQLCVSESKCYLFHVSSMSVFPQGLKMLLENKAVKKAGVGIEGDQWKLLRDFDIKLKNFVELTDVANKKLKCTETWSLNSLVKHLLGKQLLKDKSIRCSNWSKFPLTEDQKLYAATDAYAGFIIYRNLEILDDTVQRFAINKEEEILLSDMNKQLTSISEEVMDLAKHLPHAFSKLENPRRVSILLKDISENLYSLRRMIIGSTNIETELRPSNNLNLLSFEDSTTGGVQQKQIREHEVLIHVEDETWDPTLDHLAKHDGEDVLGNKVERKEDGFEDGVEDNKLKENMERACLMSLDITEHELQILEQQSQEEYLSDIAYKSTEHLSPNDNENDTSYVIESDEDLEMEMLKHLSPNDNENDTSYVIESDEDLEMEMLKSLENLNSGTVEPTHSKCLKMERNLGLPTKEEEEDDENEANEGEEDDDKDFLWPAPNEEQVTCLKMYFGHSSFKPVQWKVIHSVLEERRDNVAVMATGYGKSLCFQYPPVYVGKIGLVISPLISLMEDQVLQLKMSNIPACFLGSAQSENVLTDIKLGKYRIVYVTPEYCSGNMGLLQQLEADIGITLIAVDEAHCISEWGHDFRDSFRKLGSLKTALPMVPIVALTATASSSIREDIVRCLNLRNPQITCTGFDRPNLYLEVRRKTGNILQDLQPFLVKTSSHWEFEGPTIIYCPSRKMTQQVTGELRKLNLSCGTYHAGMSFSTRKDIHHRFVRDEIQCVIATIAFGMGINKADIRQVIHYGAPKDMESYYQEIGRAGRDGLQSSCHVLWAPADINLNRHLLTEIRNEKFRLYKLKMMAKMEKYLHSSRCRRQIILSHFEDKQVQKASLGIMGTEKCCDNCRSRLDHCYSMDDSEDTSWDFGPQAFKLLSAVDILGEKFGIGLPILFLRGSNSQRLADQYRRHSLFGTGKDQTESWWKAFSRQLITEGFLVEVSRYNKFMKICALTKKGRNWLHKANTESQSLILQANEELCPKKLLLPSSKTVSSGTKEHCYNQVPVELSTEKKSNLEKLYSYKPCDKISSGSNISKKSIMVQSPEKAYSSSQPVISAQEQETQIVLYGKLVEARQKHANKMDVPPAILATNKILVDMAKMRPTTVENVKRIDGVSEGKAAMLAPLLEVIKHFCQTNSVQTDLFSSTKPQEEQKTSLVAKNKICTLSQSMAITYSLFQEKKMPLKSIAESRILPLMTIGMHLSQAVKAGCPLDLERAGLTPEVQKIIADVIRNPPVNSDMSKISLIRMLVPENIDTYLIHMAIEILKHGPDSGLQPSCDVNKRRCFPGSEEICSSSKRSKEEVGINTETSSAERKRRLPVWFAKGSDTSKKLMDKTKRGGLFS
Experimental: PC3 cells were cultured and treated with 100 nM kzl052 for 2 h. The cells were collected into 1.5 mL EP tubes, treated with a metal bath at different temperatures (43 °C, 46 °C, 49 °C, 52 °C, and 55 °C) for 3 min, and balanced for 2 min at room temperature. The supernatant was collected by centrifugation after three cycles of liquid nitrogen in a 37 °C water bath, and then a SDS-loading buffer and denatured protein was added at 100 °C for 10 min. Finally, the content of the binding of the WRN protein was detected by Western blot.

[8] = tested on: PC3 cells; assay: Bright field and Hoechst staining, PC3; assay type: cell-based, human; settings: 24 h
Experimental: (§3) PC3 and LNCaP cells were cultured and treated with different concentrations of kzl052 for 24 h and then 5 μg/mL of a Hoechst 33258 dye solution (Solarbio, Beijing, China) was added for 5–10 min after PBS washing. The fluorescence microscope (Leica, Wetzlar, Germany) was used for photo observation.

[9] = molecular target: T2, WRN helicase (Homo sapiens, UniProt Q14191); assay: WRN-unwinding assay (WRN enzyme activity test); assay type: biochemical; settings: Figure S2
T2 construct: ICE Bioscience Inc (Beijing, China)
T2 sequence (Q14191 whole entry): as above
Experimental: NSC617145 in WRN FI as s ay KZL -05 2 in WR N FI as s ay
Figure S2.The results of WRN-unwinding assay. WRN enzyme activity test were
performed by ICE Bioscience Inc (Beijing, China).

[10] = tested on: LNCaP cells; assay: MTT assay, LNCaP cell growth; assay type: cell-based; settings: Homo sapiens, 24 h (Figure 1 legend), 48 h (method)
Experimental: as §1

[11] = Acute toxicity assay in BALB/c mice; assay type: in vivo; settings: mouse, in vivo; within 24 h, male BALB/c mice, one-time treatment
Experimental: (§4) The toxicity of kzl052 in vivo was tested by an acute toxicity analysis in male BALB/c mice. A total of 20 mice were divided into 5 groups randomly. Each group was given a one-time treatment of kzl052 concentrations at 0 mg/kg, 50 mg/kg, 100 mg/kg, 200 mg/kg, and 500 mg/kg. The survival or death status of mice within 24 h was observed and recorded. The survival and death rate of mice were calculated.

[12] = tested on: BALB/c mice; assay: Acute toxicity assay in BALB/c mice; assay type: in vivo; settings: 24 h; for Death Number / Survival Number: 4 mice
Experimental: as §4

[13] = tested on: WRN protein; assay: Western blot of WRN protein level; assay type: cell-based; settings: 24 h
[14] = tested on: LNCaP cells; assay: Bright field and Hoechst staining, LNCaP; assay type: cell-based, human; settings: 24 h
Experimental: as §3

[15] = tested on: LNCaP cells; assay: γ-H2A.X immunofluorescence (DNA damage), LNCaP; assay type: cell-based, human; settings: 100 nM, 24 h
Experimental: as §2

[16] = tested on: PC3 cells; assay: PC3 xenograft in BALB/c-null mice; assay type: in vivo; settings: 5 mg/kg intraperitoneally
Experimental: Male BALB/c-null mice (4 weeks and 18–20 g) were purchased from SiPeiFu Biotechnology Co., Ltd. (Beijing, China). All SPF-grade mice were fed in the animal room with an IVC system barrier environment (Natural Products Research Center of Guizhou Province). The ambient temperature was maintained at 22 ± 2 °C, the humidity was 40–60%, and the light–dark cycle was maintained for 12 h to simulate the normal external environment. The mice took food and water autonomously. Xenografts were performed by subcutaneously implanting PC3 cells (1 × 10^7/0.1 mL). When the tumor size was 100 mm^3, the mice were randomly divided into 2 groups (N = 8). One group was intraperitoneally injected with kzl052 (5 mg/kg), and the other group was given the same dose of the solvent. The body weight and tumor volume was recorded every two days. The tumor volume (mm^3) = 0.5 × long diameter × short diameter^2. At the end of the experiment, the mice were euthanized and dissected to measure the weight of tumor tissue, heart, liver, spleen, kidney, and lung.
The tumor tissue sections were placed sequentially in xylene I/10 min; xylene II/10 min; absolute ethanol I/5 min; absolute ethanol II/5 min; 95% ethanol/5 min; 90% ethanol/5 min; 80% ethanol/5 min; and 70% ethanol/5 min. Then the sections were treated in a hematoxylin staining solution (Solarbio, Beijing, China) for 3–5 min. The slices were treated by 1% hydrochloric acid alcohol for 5–10 s. The sections were treated in an eosin staining solution (Solarbio, Beijing, China) for 1–3 min. Next, the slices were dehydrated with 95% ethanol/5 min; anhydrous ethanol I/5 min; anhydrous ethanol/5 min; xylene I/5 min; and xylene II/5 min. Finally, the sections were sealed with a neutral gum (Solarbio, Beijing, China). The H&E staining results were photographed and analyzed under light microscopes (Leica, Wetzlar, Germany).
The tissue sections were roasted, dewaxed, hydrated, antigen repaired, blocked, and incubated with a polyclonal antibody (PNCA, RPA, Mre11, PARP1, and RB1 at a 1:50 dilution, HUBIO, and γ-H2A.X at a 1:50 dilution, CST) at 4 °C overnight. The HRP-labeled IgG secondary antibody (1:1000 dilution, HUBIO, Hangzhou, China) was incubated at 37 °C for 2 h, stained with DAB, and then stained with hematoxylin (Solarbio, Beijing, China) and sealed with a neutral rubber (Solarbio, Beijing, China). It was also observed and photographed under a microscope (Leica, Wetzlar, Germany). The immunohistochemical results were statistically analyzed using image Pro plus (V6.0) software.

CC(=O)O[C@@]12CO[C@@H]1C[C@H](O)[C@@]1(C)C(=O)[C@H](O)C3=C(C)[C@@H](OC(=O)[C@H](O)[C@@H](NC(=O)OC(C)(C)C)c4ccccc4)C[C@@](O)([C@@H](OC(=O)c4ccccc4)[C@H]21)C3(C)C [Docetaxel, reference compound]
IC50 [1]: 410 ± 110 nM | IC50 [2]: 110 ± 10 nM

CC(C)(CN1C(=O)C(Cl)=C(Cl)C1=O)CN1C(=O)C(Cl)=C(Cl)C1=O [NSC 617145]
IC50 [1]: 1810 ± 270 nM

Cc1ccc2nc(C(F)(F)F)nc(N(C)c3ccc(OC(F)F)cc3)c2c1 [kzl052]
IC50 [1]: 3120 ± 90 nM | γ-H2A.X staining, PC3 [3]: significantly increased | IC50 [4]: 390 ± 10 nM | expression of PARP1, Bax, PLK1, and RB1 [5]: significantly up-regulated | expression of PCNA, RPA, and FEN1 [5]: significantly inhibited | protein level of Mre11 [5]: up-regulated | protein levels of Bcl-2, SRC, and PTEN [5]: inhibited | sensitivity of WRN-silenced PC3 cells [6]: more insensitive | binding to WRN protein (CETSA) [7]: bound to the WRN protein | cell death, PC3 [8]: promoted PC3 and LNCaP cell death | effect on activity of WRN helicase [9]: did not affect the activity of WRN helicase | IC50 [10]: 110 ± 10 nM | LD50 at 24 h [11]: 200 to 500 mg/kg | Mortality Rate ([12]; 50 mg/kg): 0% | Survival Rate ([12]; 50 mg/kg): 100% | Death Number ([12]; 50 mg/kg): 0 | Survival Number ([12]; 50 mg/kg): 4 | Mortality Rate ([12]; 100 mg/kg): 0% | Survival Rate ([12]; 100 mg/kg): 100% | Death Number ([12]; 100 mg/kg): 0 | Survival Number ([12]; 100 mg/kg): 4 | Mortality Rate ([12]; 200 mg/kg): 0% | Survival Rate ([12]; 200 mg/kg): 100% | Death Number ([12]; 200 mg/kg): 0 | Survival Number ([12]; 200 mg/kg): 4 | Mortality Rate ([12]; 500 mg/kg): 75% | Survival Rate ([12]; 500 mg/kg): 25% | Death Number ([12]; 500 mg/kg): 3 | Survival Number ([12]; 500 mg/kg): 1 | WRN protein expression [13]: significantly inhibited | cell death, LNCaP [14]: promoted PC3 and LNCaP cell death | γ-H2A.X staining, LNCaP [15]: significantly increased | H&E staining compared with the control group [16]: no significant difference | effects on mouse body weight and internal organ morphology [16]: minimal effects | growth of PC3 cells in vivo (tumor volume, tumor quality) ([16]; PC3 xenograft): significantly inhibited | DNA replication fork complexes in tumor tissues (immunohistochemistry) ([16]; γ-H2A.X, PARP1, RB1, PCNA, RPA, Mre11): promoted the instability of DNA replication fork complexes | IC50 [2]: 920 ± 240 nM
